Reference: patent US12156893B2, “Oral composition comprising lactic acid bacteria for regulating immune responses and methods related thereto” (The Regents of the University of California, priority 2016, dated 2024)

How the values were obtained:
Format in all cases: cell-based, human
OSCSCs = experiment: Chemotherapy-induced cell death of NK-differentiated OSCSCs; conditions: OSCSCs differentiated with NK supernatants
MP2 tumors = experiment: Chemotherapy-induced cell death of MP2 tumors; conditions: for Cell death of NK-differentiated MP2: MP2 differentiated with NK-supernatants
PL12 or Capan = experiment: NAC-induced cell death of well-differentiated pancreatic tumors; conditions: NAC added to well-differentiated PL12 or Capan
NK cells = experiment: Production of cytokines, growth factors and chemokines by NK cells treated with bacterial strains (Bio-Plex 27-plex); parameters: unit not given here
Description: Different strains of probiotic bacteria were tested for their ability to induce IFN-g as well as a number of important cytokines, chemokines and growth factors (Table 1). To assess the levels of each strain used in the combination we used an activation index established in the lab for the NK cells which consisted of the use of a specific ratio of several important cytokines and chemokines that prevented auto-immunity while enhancing significant activation of NK cells under pathologic conditions. Therefore, the strains were selected to: 1) provide regulated activation of NK cells when no activation of NK cells is desired; 2) when activated by cytokines and/or cross-linking of the important receptors which occurs during functional activation of NK cells in cancer is to induce maximal activation of NK cells; and 3) provide diversity for gut microflora. These criteria allow us to use bacteria to regulate the gut mucosal immunity in such a way that we will only increase NK activation when needed during infections or malignancies. In other words when there is no need for function of NK cells bacteria will regulate NK function to not induce inflammation; however, during need which occurs under the pathological conditions NK cells are triggered to function at the maximal levels. Such coordinated regulation of NK cell function should be effective in halting unwanted inflammation while providing effective and maximal immunity during disease.
Written informed consents, approved by UCLA Institutional Review Board (IRB), were obtained from healthy blood donors, and all procedures were approved by the UCLA-IRB. Peripheral blood was separated using Ficoll-Hypaque centrifugation, after which the white, cloudy layer, containing peripheral blood mononuclear cells (PBMC), was harvested, washed and re-suspended in RPMI 1640 (Invitrogen by Life Technologies, CA) supplemented with 10% FBS and plated on plastic tissue culture dishes. After 1-2 hours of incubation, non-adherent, human peripheral blood lymphocytes (PBL) were collected. NK cells were negatively selected and isolated from PBLs using the EasySep® Human NK cell enrichment kit purchased from Stem Cell Technologies (Vancouver, BC, Canada). Isolated NK cells were stained with anti-CD16 antibody, to measure NK cell purity using flow cytometric analysis. The isolated NK cell population was greater than 90% purity. Purified NK cells were cultured in RPMI Medium 1640 supplemented with 10% FBS (Gemini Bio-Products, CA), 1% antibiotic antimycotic, 1% sodium pyruvate, and 1% MEM non-essential amino acids (Invitrogen, Life Technologies, CA).
Purified NK cells from healthy donors were left untreated or treated with IL-2 (1000 units/ml) or the combination of anti-CD16 mAb (3 μg/ml) and IL-2 (1000 units/ml) in the presence or absence of bacterial strains at 1:5 ratio (NK cell: bacteria) for 12-18 hours. Afterwards, the levels of cytokines, growth factors and chemokines were determined using Bio-Plex Pro Human Cytokine 27-plex Assay Kit.

[1] = Treatment NK (no activation), bacteria 1:5 NK cell:bacteria, 12-18 hours
[2] = Treatment NK + IL-2 (1000 units/ml), bacteria 1:5, 12-18 hours
[3] = Treatment NK + IL-2 + anti-CD16 mAb (3 μg/ml), bacteria 1:5, 12-18 hours

[NH2][Pt]([NH2])([Cl])[Cl] [CDDP, Cisplatin]
Cell death of NK-differentiated OSCSCs (OSCSCs): significant susceptibility | Cell death of NK-differentiated MP2 (MP2 tumors): significant susceptibility

CC(=O)N[C@@H](CS)C(=O)O [NAC, N-acetylcysteine]
Cell death of NK-differentiated OSCSCs (OSCSCs): significantly increased Paclitaxel-mediated cell death | Cell death (MP2 tumors; NAC added to poorly-differentiated MP2): lower/slight effect on cell death | Cell death (PL12 or Capan): greater levels of cell death

Bifidobacterium breve [B. breve]
Eotaxin (NK cells; [1]): 15 | G-CSF (NK cells; [1]): 363 | GM-CSF (NK cells; [1]): 101 | IFN-γ (NK cells; [1]): 99 | IL-1B (NK cells; [1]): 200 | IL-1ra (NK cells; [1]): 196 | IL-6 (NK cells; [1]): 9726 | IL-8 (NK cells; [1]): 3975 | IL-10 (NK cells; [1]): 127 | IL-12p70 (NK cells; [1]): 10 | IL-13 (NK cells; [1]): 5 | IL-17 (NK cells; [1]): 53 | IP-10 (NK cells; [1]): 32 | MCP-1 (NK cells; [1]): 265 | RANTES (NK cells; [1]): 1662 | TNF-α (NK cells; [1]): 2904 | Eotaxin (NK cells; [2]): 22 | G-CSF (NK cells; [2]): 138 | GM-CSF (NK cells; [2]): 127 | IFN-γ (NK cells; [2]): 284 | IL-1B (NK cells; [2]): 165 | IL-1ra (NK cells; [2]): 470 | IL-6 (NK cells; [2]): 3402 | IL-8 (NK cells; [2]): 1912 | IL-10 (NK cells; [2]): 36 | IL-12p70 (NK cells; [2]): 21 | IL-13 (NK cells; [2]): 9 | IL-17 (NK cells; [2]): 57 | IP-10 (NK cells; [2]): 35 | MCP-1 (NK cells; [2]): 72 | RANTES (NK cells; [2]): 1988 | TNF-α (NK cells; [2]): 1868 | Eotaxin (NK cells; [3]): 29 | G-CSF (NK cells; [3]): 289 | GM-CSF (NK cells; [3]): 180 | IFN-γ (NK cells; [3]): 844 | IL-1B (NK cells; [3]): 421 | IL-1ra (NK cells; [3]): 565 | IL-6 (NK cells; [3]): 7261 | IL-8 (NK cells; [3]): 4929 | IL-10 (NK cells; [3]): 68 | IL-12p70 (NK cells; [3]): 26 | IL-13 (NK cells; [3]): 28 | IL-17 (NK cells; [3]): 72 | IP-10 (NK cells; [3]): 55 | MCP-1 (NK cells; [3]): 153 | RANTES (NK cells; [3]): 3934 | TNF-α (NK cells; [3]): 1498

CC(=O)O[C@H]1C(=O)[C@@]2(C)[C@H]([C@H](OC(=O)c3ccccc3)[C@]3(O)C[C@H](OC(=O)[C@H](O)[C@@H](NC(=O)c4ccccc4)c4ccccc4)C(C)=C1C3(C)C)[C@]1(OC(C)=O)CO[C@@H]1C[C@@H]2O [Paclitaxel]
Cell death of NK-differentiated OSCSCs (OSCSCs): higher cell death | Cell death of NK-differentiated MP2 (MP2 tumors): significant susceptibility

Lactobacillus bulgaricus [L. bulgaricus]
Eotaxin (NK cells; [1]): 7 | G-CSF (NK cells; [1]): 77 | GM-CSF (NK cells; [1]): 121 | IFN-γ (NK cells; [1]): 144 | IL-1B (NK cells; [1]): 293 | IL-1ra (NK cells; [1]): 112 | IL-6 (NK cells; [1]): 2518 | IL-8 (NK cells; [1]): 4501 | IL-10 (NK cells; [1]): 22 | IL-12p70 (NK cells; [1]): 25 | IL-13 (NK cells; [1]): 9 | IL-17 (NK cells; [1]): 49 | IP-10 (NK cells; [1]): 88 | MCP-1 (NK cells; [1]): 609 | RANTES (NK cells; [1]): 3804 | TNF-α (NK cells; [1]): 868 | Eotaxin (NK cells; [2]): 15 | G-CSF (NK cells; [2]): 69 | GM-CSF (NK cells; [2]): 120 | IFN-γ (NK cells; [2]): 381 | IL-1B (NK cells; [2]): 123 | IL-1ra (NK cells; [2]): 449 | IL-6 (NK cells; [2]): 837 | IL-8 (NK cells; [2]): 1997 | IL-10 (NK cells; [2]): 12 | IL-12p70 (NK cells; [2]): 21 | IL-13 (NK cells; [2]): 10 | IL-17 (NK cells; [2]): 55 | IP-10 (NK cells; [2]): 78 | MCP-1 (NK cells; [2]): 313 | RANTES (NK cells; [2]): 4737 | TNF-α (NK cells; [2]): 439 | Eotaxin (NK cells; [3]): 6 | G-CSF (NK cells; [3]): 59 | GM-CSF (NK cells; [3]): 136 | IFN-γ (NK cells; [3]): 306 | IL-1B (NK cells; [3]): 141 | IL-1ra (NK cells; [3]): 383 | IL-6 (NK cells; [3]): 685 | IL-8 (NK cells; [3]): 1819 | IL-10 (NK cells; [3]): 9 | IL-12p70 (NK cells; [3]): 5 | IL-13 (NK cells; [3]): 8 | IL-17 (NK cells; [3]): 50 | IP-10 (NK cells; [3]): 72 | MCP-1 (NK cells; [3]): 305 | RANTES (NK cells; [3]): 4062 | TNF-α (NK cells; [3]): 1064

Lactobacillus acidophilus [L. acidophilus]
Eotaxin (NK cells; [1]): 16 | G-CSF (NK cells; [1]): 141 | GM-CSF (NK cells; [1]): 110 | IFN-γ (NK cells; [1]): 366 | IL-1B (NK cells; [1]): 819 | IL-1ra (NK cells; [1]): 181 | IL-6 (NK cells; [1]): 10357 | IL-8 (NK cells; [1]): 6879 | IL-10 (NK cells; [1]): 62 | IL-12p70 (NK cells; [1]): 299 | IL-13 (NK cells; [1]): 5 | IL-17 (NK cells; [1]): 63 | IP-10 (NK cells; [1]): 77 | MCP-1 (NK cells; [1]): 400 | RANTES (NK cells; [1]): 2553 | TNF-α (NK cells; [1]): 6858 | Eotaxin (NK cells; [2]): 21 | G-CSF (NK cells; [2]): 89 | GM-CSF (NK cells; [2]): 127 | IFN-γ (NK cells; [2]): 1329 | IL-1B (NK cells; [2]): 335 | IL-1ra (NK cells; [2]): 487 | IL-6 (NK cells; [2]): 2095 | IL-8 (NK cells; [2]): 1116 | IL-10 (NK cells; [2]): 17 | IL-12p70 (NK cells; [2]): 136 | IL-13 (NK cells; [2]): 8 | IL-17 (NK cells; [2]): 63 | IP-10 (NK cells; [2]): 51 | MCP-1 (NK cells; [2]): 112 | RANTES (NK cells; [2]): 2353 | TNF-α (NK cells; [2]): 1151 | Eotaxin (NK cells; [3]): 31 | G-CSF (NK cells; [3]): 102 | GM-CSF (NK cells; [3]): 199 | IFN-γ (NK cells; [3]): 2715 | IL-1B (NK cells; [3]): 654 | IL-1ra (NK cells; [3]): 493 | IL-6 (NK cells; [3]): 3684 | IL-8 (NK cells; [3]): 2004 | IL-10 (NK cells; [3]): 24 | IL-12p70 (NK cells; [3]): 155 | IL-13 (NK cells; [3]): 23 | IL-17 (NK cells; [3]): 73 | IP-10 (NK cells; [3]): 69 | MCP-1 (NK cells; [3]): 289 | RANTES (NK cells; [3]): 3999 | TNF-α (NK cells; [3]): 5663
